Assay [1] deals with T1, HtrA1 FL (Homo sapiens, UniProt Q92743).
T1 construct: HtrA1 (Q23-P480, 5654, Tni Baculovirus); made in house; host or cells: Trichoplusia ni (Tni) cells, baculovirus
The assay is classed as binding. The note with it: read-out: Kd(μM) SPR.

Assay [2] relates to HtrA1. The class given is binding, human. The note with it: ratio of signal for target protein over BSA background.
The target in assay [3] is T2, Notch2NRR (Notch2 NRR domain) (Homo sapiens, UniProt Q04721).
T2 construct: NRR protein (A1423–Q1677, made in-house); His tag (cleaved yes); made in house; host or cells: CHO
T2 sequence (Q04721 1423-1677): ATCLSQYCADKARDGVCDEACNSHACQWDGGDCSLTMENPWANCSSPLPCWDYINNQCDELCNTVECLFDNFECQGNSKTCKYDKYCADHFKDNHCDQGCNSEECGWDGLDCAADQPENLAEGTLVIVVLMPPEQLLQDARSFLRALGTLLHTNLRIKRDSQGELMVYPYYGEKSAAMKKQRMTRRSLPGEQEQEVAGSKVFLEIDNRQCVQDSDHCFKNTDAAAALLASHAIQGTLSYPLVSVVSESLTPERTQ
Description: SPR binding of synthetic DCPs to Notch2NRR. Particulars: Biacore S200, 25°C; synthetic folded peptide, 3-fold dilution from 100 μM; biotinylated NRR on chip SA; steady state fitting. Here is the method:
(§1) All binding experiments were performed using a Biacore S200 instrument (GE Healthcare) at 25°C at a flow rate of 50 μL/min. The kinetics and affinity measurements were carried out using either single-cycle or multi-cycle kinetics (SCK or MCK), solvent corrected and referenced by subtracting the signal to the blank flow cell. Binding affinity and kinetic parameters (association and dissociation rate constants, and dissociation equilibrium constant) were calculated with the Biacore S200 Evaluation Software (version 1.1.1, Cytiva) using either a 1:1 binding model or a steady-state equilibrium model (according to the manufacturer’s instructions).
(§2) Biotinylated N2L protein (D219–E418, made in-house) and NRR protein (A1423–Q1677, made in-house) were captured at around 500, 1000 and 1500 RU on Sensor Chip SA (Cytiva).
For orientation: In SPR one partner is held on a chip, and binding of the other changes the refractive index at the surface.

Assay [4] has as its system Notch2NRR. The assay is described as follows: Spot phage ELISA, Notch2NRR. Particulars: ratio of signal for target protein over BSA background. The class given is binding, human. A general note: ELISA stands for enzyme-linked immunosorbent assay.
Assay [5] addresses T3, Notch2Long (Notch2 EGF6-EGF12) (Homo sapiens, UniProt Q04721).
T3 construct: Biotinylated N2L protein (D219–E418, made in-house); His tag (cleaved yes); made in house; host or cells: CHO
T3 sequence (Q04721 219-418): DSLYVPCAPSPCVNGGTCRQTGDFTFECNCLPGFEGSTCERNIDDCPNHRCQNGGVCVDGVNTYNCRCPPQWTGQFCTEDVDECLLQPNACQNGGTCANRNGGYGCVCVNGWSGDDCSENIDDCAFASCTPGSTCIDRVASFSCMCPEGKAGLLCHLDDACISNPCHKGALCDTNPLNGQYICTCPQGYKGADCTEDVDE
The assay is described as follows: SPR binding of synthetic DCPs to Notch2Long. The note with it: Biacore S200, 25°C, 50 μL/min; synthetic in vitro folded peptide, 3-fold dilution from 100 μM; biotinylated N2L on chip SA; steady state fitting; at least three independent experiments; n/d = no binding. Here is the method: as §1, §2

The test system of assay [6] is BamA-amphipol. The assay is described as follows: Spot phage ELISA, BamA-amphipol. The assay is classed as binding, bacterial.

Where two headings read alike, the source gives them in different places. Where a SMILES comes first, the peptide text is derived from it. Bridges are numbered along the chain shown (N, C = ends). Where no end group is shown, it is not given here.

As usually defined, the Kd is the concentration at which binding is half-saturated.

T1 sequence (Q92743 23-480): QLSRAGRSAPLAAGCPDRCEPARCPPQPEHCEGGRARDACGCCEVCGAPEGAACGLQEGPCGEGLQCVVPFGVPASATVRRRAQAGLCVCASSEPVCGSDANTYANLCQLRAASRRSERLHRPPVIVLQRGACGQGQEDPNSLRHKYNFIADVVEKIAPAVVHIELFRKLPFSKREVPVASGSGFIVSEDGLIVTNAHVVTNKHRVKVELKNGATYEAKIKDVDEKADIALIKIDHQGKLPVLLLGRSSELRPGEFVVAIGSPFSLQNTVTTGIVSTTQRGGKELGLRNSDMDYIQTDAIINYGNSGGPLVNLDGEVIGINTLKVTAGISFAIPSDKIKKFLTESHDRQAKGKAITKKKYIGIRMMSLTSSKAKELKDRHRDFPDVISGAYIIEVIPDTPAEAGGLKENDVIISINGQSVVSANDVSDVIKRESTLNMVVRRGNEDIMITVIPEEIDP

Regarding `CC[C@H](C)[C@@H]1NC(=O)[C@H](Cc2ccccc2)NC(=O)[C@H](Cc2ccc(O)cc2)NC(=O)[C@H](C(C)C)NC(=O)[C@H](CCSC)NC(=O)[C@H](C(C)C)NC(=O)[C@@H]2CSSC[C@H](NC(=O)[C@H](CC(=O)O)NC(=O)[C@H](Cc3ccccc3)NC(=O)[C@H](C)N)C(=O)N[C@@H](CC(C)C)C(=O)NCC(=O)N[C@@H](CCC(N)=O)C(=O)N[C@H]3CSSC[C@H](NC(=O)[C@H](Cc4ccc(O)cc4)NC(=O)[C@@H]4CCCN4C(=O)[C@H](CCCCN)NC(=O)[C@H]([C@@H](C)O)NC(=O)[C@H](CCSC)NC(=O)[C@H](Cc4c[nH]cn4)NC1=O)C(=O)N[C@@H](CC(N)=O)C(=O)N[C@@H](CO)C(=O)N[C@@H](CO)C(=O)N[C@H](C(=O)N[C@H](C(=O)N[C@@H](CCCNC(=N)N)C(=O)O)[C@@H](C)O)CSSC[C@H](NC(=O)[C@H](CCCNC(=N)N)NC(=O)CNC3=O)C(=O)N[C@@H](CC(=O)O)C(=O)N[C@@H](Cc1ccccc1)C(=O)N[C@@H](Cc1c[nH]cn1)C(=O)N[C@@H](CCCCN)C(=O)N[C@@H](CC(C)C)C(=O)N[C@@H](CCC(N)=O)C(=O)N2` [HtrA1_AVR61] (HELM PEPTIDE1{A.F.D.C.L.G.Q.C.G.R.C.D.F.H.K.L.Q.C.V.M.V.Y.F.I.H.M.T.K.P.Y.C.N.S.S.C.T.R}$PEPTIDE1,PEPTIDE1,4:R3-18:R3|PEPTIDE1,PEPTIDE1,8:R3-31:R3|PEPTIDE1,PEPTIDE1,11:R3-35:R3$$$V2.0; N-terminus and C-terminus assumed), the Kd in assay [1] (Biacore S200, 25°C, biotinylated HtrA1 FL on chip SA, 10 mM HEPES (8.0), 200mM NaCl, 0.25% CHAPS, 5% DMSO, steady state fitting, n/d = no binding) was greater than 20 µM. Also, the S/N in assay [2] was found to be 24.4.
`CC(C)C[C@@H]1NC(=O)[C@@H](NC(=O)[C@H](CC(=O)O)NC(=O)[C@H](Cc2ccccc2)NC(=O)[C@H](C)N)CSSC[C@@H]2NC(=O)[C@H](CCC(N)=O)NC(=O)[C@H](CC(C)C)NC(=O)[C@H](CCCCN)NC(=O)[C@H](Cc3c[nH]cn3)NC(=O)[C@H](Cc3ccccc3)NC(=O)[C@H](CC(=O)O)NC(=O)[C@@H]3CSSC[C@@H](C(=O)N[C@H](C(=O)N[C@@H](CCCNC(=N)N)C(=O)O)[C@@H](C)O)NC(=O)[C@H](CO)NC(=O)[C@H](CO)NC(=O)[C@H](CC(N)=O)NC(=O)[C@H](CSSC[C@H](NC(=O)[C@H](CCC(N)=O)NC(=O)CNC1=O)C(=O)NCC(=O)N[C@@H](CCCNC(=N)N)C(=O)N3)NC(=O)[C@H](Cc1ccc(O)cc1)NC(=O)[C@@H]1CCCN1C(=O)[C@H](CO)NC(=O)[C@H](Cc1c[nH]cn1)NC(=O)[C@H](CCCNC(=N)N)NC(=O)[C@H](CC(N)=O)NC(=O)[C@H](CO)NC(=O)[C@H](Cc1c[nH]c3ccccc13)NC(=O)[C@H](C(C)C)NC2=O` [N2N-AVR-n6] (HELM PEPTIDE1{A.F.D.C.L.G.Q.C.G.R.C.D.F.H.K.L.Q.C.V.W.S.N.R.H.S.P.Y.C.N.S.S.C.T.R}$PEPTIDE1,PEPTIDE1,4:R3-18:R3|PEPTIDE1,PEPTIDE1,8:R3-28:R3|PEPTIDE1,PEPTIDE1,11:R3-32:R3$$$V2.0; N-terminus and C-terminus assumed) gave a dissociation constant (Kd) in assay [3] of 0.8 µM. Also, in assay [4], the s/n ratio is reported as 39.3.
In the same order, the values of `CC(C)C[C@@H]1NC(=O)[C@@H](NC(=O)[C@H](CC(=O)O)NC(=O)[C@H](Cc2ccccc2)NC(=O)[C@H](C)N)CSSC[C@@H]2NC(=O)[C@H](CCC(N)=O)NC(=O)[C@H](CC(C)C)NC(=O)[C@H](CCCCN)NC(=O)[C@H](Cc3c[nH]cn3)NC(=O)[C@H](Cc3ccccc3)NC(=O)[C@H](CC(=O)O)NC(=O)[C@@H]3CSSC[C@@H](C(=O)N[C@H](C(=O)N[C@@H](CCCNC(=N)N)C(=O)O)[C@@H](C)O)NC(=O)[C@H](CO)NC(=O)[C@H](CO)NC(=O)[C@H](CC(N)=O)NC(=O)[C@H](CSSC[C@H](NC(=O)[C@H](CCC(N)=O)NC(=O)CNC1=O)C(=O)NCC(=O)N[C@@H](CCCNC(=N)N)C(=O)N3)NC(=O)[C@H](Cc1ccc(O)cc1)NC(=O)[C@H](CCC(N)=O)NC(=O)[C@H](CCCCN)NC(=O)[C@H](Cc1ccc(O)cc1)NC(=O)[C@H]([C@@H](C)O)NC(=O)[C@H](Cc1c[nH]c3ccccc13)NC(=O)[C@H](CO)NC(=O)[C@H](Cc1ccc(O)cc1)NC(=O)[C@@H]1CCCN1C(=O)[C@H](C(C)C)NC2=O` [N2N-AVR-19] (HELM PEPTIDE1{A.F.D.C.L.G.Q.C.G.R.C.D.F.H.K.L.Q.C.V.P.Y.S.W.T.Y.K.Q.Y.C.N.S.S.C.T.R}$PEPTIDE1,PEPTIDE1,4:R3-18:R3|PEPTIDE1,PEPTIDE1,8:R3-29:R3|PEPTIDE1,PEPTIDE1,11:R3-33:R3$$$V2.0; N-terminus and C-terminus assumed) are 9.4 µM and 35.7.
In the case of `CC[C@H](C)[C@@H]1NC(=O)[C@@H](NC(=O)CN)CSSC[C@@H]2NC(=O)CNC(=O)[C@H](C)NC(=O)[C@H](CCC(=O)O)NC(=O)[C@@H]3CSSC[C@@H](C(=O)NCC(=O)O)NC(=O)[C@H](CCC(N)=O)NC(=O)[C@H]([C@@H](C)CC)NC(=O)[C@H](Cc4c[nH]c5ccccc45)NC(=O)[C@H](C(C)C)NC(=O)[C@H](CCC(=O)O)NC(=O)[C@H](CSSC[C@H](NC(=O)[C@H](Cc4c[nH]c5ccccc45)NC(=O)[C@H](CC(C)C)NC(=O)[C@H](Cc4c[nH]cn4)NC(=O)[C@H](CO)NC(=O)[C@H](CCCCN)NC1=O)C(=O)N1CCC[C@H]1C(=O)N[C@@H](CCCCN)C(=O)N[C@@H]([C@@H](C)O)C(=O)N[C@@H](CO)C(=O)N[C@@H](CC(=O)O)C(=O)N3)NC(=O)[C@H]([C@@H](C)CC)NC2=O` [N2L.EET31.43.24] (HELM PEPTIDE1{G.C.I.K.S.H.L.W.C.P.K.T.S.D.C.E.A.G.C.I.C.E.V.W.I.Q.C.G}$PEPTIDE1,PEPTIDE1,2:R3-19:R3|PEPTIDE1,PEPTIDE1,9:R3-21:R3|PEPTIDE1,PEPTIDE1,15:R3-27:R3$$$V2.0), the dissociation constant (Kd) in assay [5] is 3.5 µM.
The compound `CC[C@H](C)[C@@H]1NC(=O)[C@@H](NC(=O)CN)CSSC[C@@H]2NC(=O)CNC(=O)[C@H](C)NC(=O)[C@H](CCC(=O)O)NC(=O)[C@@H]3CSSC[C@@H](C(=O)NCC(=O)O)NC(=O)[C@H](CCC(N)=O)NC(=O)[C@H]([C@@H](C)CC)NC(=O)[C@H](Cc4c[nH]c5ccccc45)NC(=O)[C@H]([C@@H](C)CC)NC(=O)[C@H](CCC(=O)O)NC(=O)[C@H](CSSC[C@H](NC(=O)[C@H](Cc4c[nH]c5ccccc45)NC(=O)[C@H](C(C)C)NC(=O)[C@H](Cc4c[nH]cn4)NC(=O)[C@H](CO)NC(=O)[C@H](CCCNC(=N)N)NC1=O)C(=O)N[C@@H](CCCCN)C(=O)N[C@@H](CCC(N)=O)C(=O)N[C@@H](CC(=O)O)C(=O)N[C@@H](CO)C(=O)N[C@@H](CC(=O)O)C(=O)N3)NC(=O)[C@H]([C@@H](C)CC)NC2=O` [N2L.EET31.43.43] (HELM PEPTIDE1{G.C.I.R.S.H.V.W.C.K.Q.D.S.D.C.E.A.G.C.I.C.E.I.W.I.Q.C.G}$PEPTIDE1,PEPTIDE1,2:R3-19:R3|PEPTIDE1,PEPTIDE1,9:R3-21:R3|PEPTIDE1,PEPTIDE1,15:R3-27:R3$$$V2.0) gave a Kd in assay [5] of 3.5 µM.
For “GCTMWQRLQAKYCKQDSDCLAGCVCHAREKCG (also: bicyclic or more (positions not given here)) [BamA-amphipol EET I-II 1]”, the S/N in assay [6] (ratio of signal for target protein over BSA background) came to 8.1. Also, the ELISA in assay [6] (spot phage ELISA signal, DCP displayed on M13 p8) came out at 1.50.
Consider “GPTQSFWGWCGGIGYVGGRYCSGTTCQRPDAHWSQCLPGAS (disulfide 10-26, 21-36 (inferred)) [HtrA1_CBDamy86]”, for which, in assay [1], the Kd was 158 µM. In addition, in assay [2], the S/N was found to be 22.8.

Values taken from PMC10977697 (PLOS ONE, 2024).
